Reference: the Kinase Knowledgebase extract (Sharma et al. 2016)

Biological target: EGFR (human) (UniProt P00533)
Sequence (P00533 whole entry, looked up): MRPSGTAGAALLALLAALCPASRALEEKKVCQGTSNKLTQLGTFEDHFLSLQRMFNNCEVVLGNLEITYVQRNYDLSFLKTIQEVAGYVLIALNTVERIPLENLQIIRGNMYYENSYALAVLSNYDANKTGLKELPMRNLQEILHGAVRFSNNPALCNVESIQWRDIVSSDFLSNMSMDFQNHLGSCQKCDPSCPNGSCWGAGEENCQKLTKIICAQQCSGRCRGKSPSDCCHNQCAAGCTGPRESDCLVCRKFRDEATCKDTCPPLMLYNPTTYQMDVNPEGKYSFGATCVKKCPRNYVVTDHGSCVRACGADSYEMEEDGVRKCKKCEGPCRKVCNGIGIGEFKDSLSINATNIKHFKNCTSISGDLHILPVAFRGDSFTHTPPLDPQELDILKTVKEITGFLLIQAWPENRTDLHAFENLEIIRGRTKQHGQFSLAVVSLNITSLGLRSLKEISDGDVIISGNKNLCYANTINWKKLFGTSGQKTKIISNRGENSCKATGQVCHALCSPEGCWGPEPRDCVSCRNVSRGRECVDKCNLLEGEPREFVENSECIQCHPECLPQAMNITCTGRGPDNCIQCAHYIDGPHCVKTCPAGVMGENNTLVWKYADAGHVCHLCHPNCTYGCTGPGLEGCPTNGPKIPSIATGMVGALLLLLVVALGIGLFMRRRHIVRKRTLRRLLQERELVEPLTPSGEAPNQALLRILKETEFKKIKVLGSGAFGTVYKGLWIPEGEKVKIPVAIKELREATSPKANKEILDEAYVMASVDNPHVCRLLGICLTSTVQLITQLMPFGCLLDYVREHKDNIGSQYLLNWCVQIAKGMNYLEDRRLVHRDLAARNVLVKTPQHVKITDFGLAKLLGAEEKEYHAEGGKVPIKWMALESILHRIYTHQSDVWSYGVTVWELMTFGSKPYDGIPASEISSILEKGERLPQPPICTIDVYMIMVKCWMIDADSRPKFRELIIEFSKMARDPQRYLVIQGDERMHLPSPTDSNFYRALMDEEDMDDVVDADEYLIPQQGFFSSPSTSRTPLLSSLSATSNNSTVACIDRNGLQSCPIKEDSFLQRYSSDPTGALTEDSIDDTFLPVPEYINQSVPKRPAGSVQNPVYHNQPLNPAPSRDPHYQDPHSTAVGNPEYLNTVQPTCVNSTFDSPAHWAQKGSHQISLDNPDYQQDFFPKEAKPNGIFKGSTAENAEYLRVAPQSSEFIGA

IC50 [nM] | Compound
100 to 1000 | CNC/C=C/C(=O)N1CC[C@@H](n2nc(-c3ccc(C(=O)Nc4cc(C)ccn4)cc3)c3c(N)ncnc32)C1
100 to 1000 | CN(C/C=C/C(=O)N[C@H]1CC[C@H](n2nc(-c3ccc(C(=O)Nc4cc(C(F)(F)F)ccn4)cc3)c3c(N)ncnc32)CC1)C1CC1
< 1 | CN(C/C=C/C(=O)N1CC[C@@H](n2nc(-c3ccc(C(=O)Nc4nccs4)cc3)c3c(N)ncnc32)C1)C1CC1
100 to 1000 | Cc1ccnc(NC(=O)c2ccc(-c3nn([C@H]4CC[C@H](NC(=O)/C=C/CN(C)C5CC5)CC4)c4ncnc(N)c34)cc2)c1
1 to 100 | CN(C/C=C/C(=O)N1CC[C@@H](n2nc(-c3ccc(C(=O)Nc4ncc(C#N)s4)cc3)c3c(N)ncnc32)C1)C1CC1
100 to 1000 | CN(C/C=C/C(=O)N1CC[C@@H](n2nc(-c3ccc(C(=O)Nc4ncc(C(F)(F)F)s4)cc3)c3c(N)ncnc32)C1)C1CC1
> 10 | CN(C/C=C/C(=O)N1CC[C@@H](n2nc(-c3ccc(C(=O)Nc4ncco4)cc3)c3c(N)ncnc32)C1)C1CC1
< 1 | CN(C/C=C/C(=O)N1CC[C@@H](n2nc(-c3ccc(C(=O)Nc4ncc(C5CC5)s4)cc3)c3c(N)ncnc32)C1)C1CC1
100 to 1000 | Cc1ccnc(NC(=O)c2ccc(-c3nn([C@H]4CC[C@H](NC(=O)/C=C/CN(C)C)CC4)c4ncnc(N)c34)cc2)c1
1 to 100 | Nc1ncnc2c1c(-c1ccc(C(=O)Nc3cc(C(F)(F)F)ccn3)cc1)nn2[C@@H]1CCN(C(=O)/C=C/CNC2CC2)C1
100 to 1000 | Cc1ccnc(NC(=O)c2ccc(-c3nn([C@@H]4CCN(C(=O)/C=C/CNC5CC5)C4)c4ncnc(N)c34)cc2)c1
100 to 1000 | CC#CC(=O)N[C@H]1CC[C@H](n2nc(-c3ccc(C(=O)Nc4cc(C(F)(F)F)ccn4)cc3)c3c(N)ncnc32)CC1
100 to 1000 | CN(C)C/C=C/C(=O)N1CC[C@@H](n2nc(-c3ccc(C(=O)Nc4cc(C(F)(F)F)ccn4)cc3)c3c(N)ncnc32)C1
100 to 1000 | CN(C/C=C/C(=O)N1CC[C@@H](n2nc(-c3ccc(C(=O)Nc4ccccn4)cc3)c3c(N)ncnc32)C1)C1CC1
1 to 100 | CNC/C=C/C(=O)N1CC[C@@H](n2nc(-c3ccc(C(=O)Nc4cc(C(F)(F)F)ccn4)cc3)c3c(N)ncnc32)C1
100 to 1000 | CCCc1ccnc(NC(=O)c2ccc(-c3nn([C@@H]4CCN(C(=O)/C=C/CN(C)C5CC5)C4)c4ncnc(N)c34)cc2)c1
100 to 1000 | CC(C)c1cnc(NC(=O)c2ccc(-c3nn([C@@H]4CCN(C(=O)/C=C/CN(C)C5CC5)C4)c4ncnc(N)c34)cc2)s1
100 to 1000 | CC(C)c1ccnc(NC(=O)c2ccc(-c3nn([C@@H]4CCN(C(=O)/C=C/CN(C)C)C4)c4ncnc(N)c34)cc2)c1
100 to 1000 | CN(C/C=C/C(=O)N1CC[C@@H](n2nc(-c3ccc(C(=O)Nc4cc(C(F)(F)F)ccn4)cc3)c3c(N)ncnc32)C1)C1CC1
100 to 1000 | CCCc1cnc(NC(=O)c2ccc(-c3nn([C@@H]4CCN(C(=O)/C=C/CN(C)C5CC5)C4)c4ncnc(N)c34)cc2)s1
100 to 1000 | CN(C)C/C=C/C(=O)N1CC[C@@H](n2nc(-c3ccc(C(=O)Nc4ccccn4)cc3)c3c(N)ncnc32)C1
100 to 1000 | CN(C)C/C=C/C(=O)N1CC[C@@H](n2nc(-c3ccc(C(=O)Nc4cc(C#N)ccn4)cc3)c3c(N)ncnc32)C1
100 to 1000 | CCc1cnc(NC(=O)c2ccc(-c3nn([C@@H]4CCN(C(=O)/C=C/CN(C)C5CC5)C4)c4ncnc(N)c34)cc2)s1
